The values that follow are results of earlier work, collected in patent US10993951B2, “Fosfomycin formulation for parenteral administration” (priority 2016, dated 2021).

The conditions of this data set: cited from earlier work.

Structures can show the parent of a compound that is named as a salt.

As to `C[C@@H]1O[C@@H]1P(=O)(O)O` [Fosfomycin disodium salt, fosfomycin disodium salt], the solubility in water entry was “highly soluble”.
